Measured values reported in publication PMC5623949, “Exploiting the 2-Amino-1,3,4-thiadiazole Scaffold To Inhibit Trypanosoma brucei Pteridine Reductase in Support of Early-Stage Drug Discovery” (ACS Omega, 2017).
Read-outs that look alike come from different tables or passages of the source.

What was measured:
[1] = tested on: T. b. brucei Lister 427 bloodstream forms; assay: In vitro activity against T. brucei (HTS SYBR Green I growth inhibition assay); format: cell-based, Trypanosoma brucei brucei; details: Trypanosoma brucei, 50 μM; standard deviation within ±10% of the value; read-out: % Inhibition T. brucei at 50 μM
TbPTR1 = target: T1, TbPTR1 (Trypanosoma brucei brucei, UniProt O76290); assay: biochemical; details: 50 μM compound; read-out: % Inhibition TbPTR1 at 50 μM
T1 construct: made in house
T1 sequence (O76290 1-268): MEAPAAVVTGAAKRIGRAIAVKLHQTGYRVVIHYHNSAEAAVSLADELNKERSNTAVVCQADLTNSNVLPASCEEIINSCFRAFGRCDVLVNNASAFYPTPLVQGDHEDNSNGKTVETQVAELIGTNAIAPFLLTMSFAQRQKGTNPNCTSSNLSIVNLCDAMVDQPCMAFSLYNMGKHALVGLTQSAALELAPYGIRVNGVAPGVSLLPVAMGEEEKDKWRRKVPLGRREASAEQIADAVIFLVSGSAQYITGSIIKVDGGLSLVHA

in vitro [2] = assay: in vitro; set-up: cytotoxicity, per cent cell growth of WI-38 fibroblasts; details: human, wi-38 cells; read-out: % cell growth W1-38 at 10uM
Description: (§1) Independent of the effect of any antiparasitic potential of compounds, they were evaluated using a panel of early-toxicity assays comprising cytotoxicity (A549, human lung adenocarcinoma epithelial cell line and WI-38, human lung fibroblasts), mitochondrial toxicity (786-O, human renal carcinoma cell line), hERG inhibition,[31] cytochrome P450 inhibition (CYP1A2, CYP2C9, CYP2C19, CYP2D6, and CYP3A4),[31] and Aurora B kinase inhibition. […] For the two compounds active against TbPTR1 (4m and 4o), IC50 against hERG, cytochrome P450, and mitochondrial toxicity were determined (reported in Supporting Information). We observed that the dose of compounds 4m, 4o, 4c, and 3k was 4 μM in the potentiation assays. […] In the case of hERG, CYP2D6, CYP2A9, CYP2C19, and mitochondrial toxicity, there is a selectivity index of around 3–4 fold, thus showing an acceptable profile.  Figure 10 Summary heat map of the in vitro assays to determine possible liability issues for all synthesized compounds. Assays were performed to assess inhibition of hERG and five CYP isoforms (1A2, 2C9, 2C19, 2D6, and 3A4), growth inhibition of A549 and W1-38 cell lines, and mitochondrial toxicity at 10 μM. The hDHFR inhibition was determined at 100 μM. The data, expressed as percentage values, were organized by adopting a color code for rapid and intuitive visualization. The ideal compound should have all tiles blue, indicating a safe toxicological profile for progressing into the development pipeline. The cells are colored from blue (100% of cell growth at the tested concentration) to red (0% of cell growth at the tested concentration) for A549 and W1-38 and from blue (0% of inhibitory activity at the tested concentration) to red (100% of inhibitory activity at the tested concentration) for CYP isoforms, hERG, hDHFR, and mitochondrial toxicity.

CYP2C9 = CYP2C9 (Homo sapiens, UniProt P11712); assay: in vitro; set-up: cytochrome P450 isoform inhibition liability assay
Sequence of CYP2C9 (P11712 whole entry, canonical isoform): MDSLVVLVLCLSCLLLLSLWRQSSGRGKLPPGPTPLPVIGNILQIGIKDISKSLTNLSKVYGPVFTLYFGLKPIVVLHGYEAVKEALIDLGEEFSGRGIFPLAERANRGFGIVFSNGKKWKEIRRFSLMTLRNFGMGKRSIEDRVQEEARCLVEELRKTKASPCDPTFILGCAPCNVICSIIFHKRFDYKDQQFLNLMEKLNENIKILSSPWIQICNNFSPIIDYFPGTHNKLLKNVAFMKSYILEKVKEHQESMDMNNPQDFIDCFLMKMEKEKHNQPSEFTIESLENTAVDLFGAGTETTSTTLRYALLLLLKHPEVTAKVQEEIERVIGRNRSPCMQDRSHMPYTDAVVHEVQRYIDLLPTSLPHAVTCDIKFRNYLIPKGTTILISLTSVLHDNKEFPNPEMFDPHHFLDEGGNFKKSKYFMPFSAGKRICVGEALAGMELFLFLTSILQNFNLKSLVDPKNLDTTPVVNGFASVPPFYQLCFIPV
Description: as §1

CYP2C19 = CYP2C19 (Homo sapiens, UniProt P33261); assay: in vitro; set-up: cytochrome P450 isoform inhibition liability assay
Sequence of CYP2C19 (P33261 whole entry, canonical isoform): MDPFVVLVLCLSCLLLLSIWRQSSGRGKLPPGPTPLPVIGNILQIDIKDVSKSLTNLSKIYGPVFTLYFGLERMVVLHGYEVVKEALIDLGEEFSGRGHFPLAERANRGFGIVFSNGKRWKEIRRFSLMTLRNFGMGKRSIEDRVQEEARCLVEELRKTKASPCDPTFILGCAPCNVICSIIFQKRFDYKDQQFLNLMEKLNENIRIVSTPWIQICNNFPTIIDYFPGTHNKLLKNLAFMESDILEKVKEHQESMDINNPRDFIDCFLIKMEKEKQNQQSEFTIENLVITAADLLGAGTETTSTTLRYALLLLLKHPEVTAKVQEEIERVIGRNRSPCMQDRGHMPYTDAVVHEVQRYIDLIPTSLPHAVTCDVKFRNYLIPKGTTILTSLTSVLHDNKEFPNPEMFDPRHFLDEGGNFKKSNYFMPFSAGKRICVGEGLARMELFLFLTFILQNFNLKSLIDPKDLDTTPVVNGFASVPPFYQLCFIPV
Description: as §1

CYP3A4 = CYP3A4 (Homo sapiens, UniProt P08684); assay: in vitro; set-up: cytochrome P450 isoform inhibition liability assay
Sequence of CYP3A4 (P08684 whole entry, canonical isoform): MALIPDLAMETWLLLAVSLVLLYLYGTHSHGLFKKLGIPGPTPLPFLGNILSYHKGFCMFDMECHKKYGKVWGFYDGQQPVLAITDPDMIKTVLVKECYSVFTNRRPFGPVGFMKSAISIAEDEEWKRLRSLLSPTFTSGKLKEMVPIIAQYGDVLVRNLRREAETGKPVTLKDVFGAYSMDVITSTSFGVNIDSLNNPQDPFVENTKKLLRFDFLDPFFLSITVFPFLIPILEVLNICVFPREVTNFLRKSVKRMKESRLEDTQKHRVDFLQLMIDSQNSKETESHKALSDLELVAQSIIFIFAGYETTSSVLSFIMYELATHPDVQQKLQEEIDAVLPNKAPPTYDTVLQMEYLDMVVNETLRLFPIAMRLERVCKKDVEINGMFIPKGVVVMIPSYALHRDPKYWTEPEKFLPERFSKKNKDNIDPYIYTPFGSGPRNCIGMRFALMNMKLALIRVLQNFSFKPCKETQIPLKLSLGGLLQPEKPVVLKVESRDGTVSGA
Description: as §1

CYP1A2 = target: T2, CYP1A2 (Homo sapiens, UniProt P05177); assay: in vitro; set-up: cytochrome P450 isoform inhibition liability assay
T2 sequence (P05177 1-516): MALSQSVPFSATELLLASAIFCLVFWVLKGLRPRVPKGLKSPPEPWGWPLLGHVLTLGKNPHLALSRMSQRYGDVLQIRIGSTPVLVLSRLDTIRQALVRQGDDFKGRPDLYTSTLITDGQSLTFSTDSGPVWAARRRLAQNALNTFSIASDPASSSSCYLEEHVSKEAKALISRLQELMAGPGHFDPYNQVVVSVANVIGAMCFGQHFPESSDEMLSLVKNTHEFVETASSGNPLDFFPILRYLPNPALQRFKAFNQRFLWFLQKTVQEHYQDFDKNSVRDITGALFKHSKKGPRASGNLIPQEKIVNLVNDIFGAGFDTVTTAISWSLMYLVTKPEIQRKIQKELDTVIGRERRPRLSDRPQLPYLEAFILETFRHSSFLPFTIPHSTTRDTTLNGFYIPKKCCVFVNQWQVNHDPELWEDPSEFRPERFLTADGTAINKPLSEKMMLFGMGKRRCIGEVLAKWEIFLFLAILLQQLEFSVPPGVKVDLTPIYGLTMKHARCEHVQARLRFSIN
Description: as §1

CYP2D6 = CYP2D6 (Homo sapiens, UniProt P10635); assay: in vitro; set-up: cytochrome P450 isoform inhibition liability assay
Sequence of CYP2D6 (P10635 whole entry, canonical isoform): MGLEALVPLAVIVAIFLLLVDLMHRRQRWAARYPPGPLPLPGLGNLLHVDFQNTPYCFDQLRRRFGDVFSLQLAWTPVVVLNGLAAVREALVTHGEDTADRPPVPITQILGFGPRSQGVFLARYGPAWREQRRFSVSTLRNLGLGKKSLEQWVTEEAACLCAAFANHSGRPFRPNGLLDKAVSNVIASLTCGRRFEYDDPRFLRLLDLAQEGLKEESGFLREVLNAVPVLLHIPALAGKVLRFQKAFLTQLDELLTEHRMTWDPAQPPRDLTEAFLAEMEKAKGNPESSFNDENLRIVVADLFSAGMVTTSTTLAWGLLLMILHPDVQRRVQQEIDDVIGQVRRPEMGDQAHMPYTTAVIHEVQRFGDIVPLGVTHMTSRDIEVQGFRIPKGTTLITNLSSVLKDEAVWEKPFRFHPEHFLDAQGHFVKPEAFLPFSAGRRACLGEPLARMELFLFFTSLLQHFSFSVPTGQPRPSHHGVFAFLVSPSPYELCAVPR
Description: as §1

786-O = assay: cells; set-up: mitochondrial toxicity in 786-O renal carcinoma cells; details: Homo sapiens, 786-0; mitochondrial toxicity
Description: as §1

in vitro [3] = assay: in vitro; set-up: cytotoxicity, per cent cell growth of A549 cells; details: human, a549 cells; read-out: % cell growth A549 at 10uM
Description: as §1

hERG = target: T3, hERG (Homo sapiens, UniProt Q12809); set-up: hERG inhibition liability assay
T3 construct: gene KCNH2
T3 sequence (Q12809 whole entry): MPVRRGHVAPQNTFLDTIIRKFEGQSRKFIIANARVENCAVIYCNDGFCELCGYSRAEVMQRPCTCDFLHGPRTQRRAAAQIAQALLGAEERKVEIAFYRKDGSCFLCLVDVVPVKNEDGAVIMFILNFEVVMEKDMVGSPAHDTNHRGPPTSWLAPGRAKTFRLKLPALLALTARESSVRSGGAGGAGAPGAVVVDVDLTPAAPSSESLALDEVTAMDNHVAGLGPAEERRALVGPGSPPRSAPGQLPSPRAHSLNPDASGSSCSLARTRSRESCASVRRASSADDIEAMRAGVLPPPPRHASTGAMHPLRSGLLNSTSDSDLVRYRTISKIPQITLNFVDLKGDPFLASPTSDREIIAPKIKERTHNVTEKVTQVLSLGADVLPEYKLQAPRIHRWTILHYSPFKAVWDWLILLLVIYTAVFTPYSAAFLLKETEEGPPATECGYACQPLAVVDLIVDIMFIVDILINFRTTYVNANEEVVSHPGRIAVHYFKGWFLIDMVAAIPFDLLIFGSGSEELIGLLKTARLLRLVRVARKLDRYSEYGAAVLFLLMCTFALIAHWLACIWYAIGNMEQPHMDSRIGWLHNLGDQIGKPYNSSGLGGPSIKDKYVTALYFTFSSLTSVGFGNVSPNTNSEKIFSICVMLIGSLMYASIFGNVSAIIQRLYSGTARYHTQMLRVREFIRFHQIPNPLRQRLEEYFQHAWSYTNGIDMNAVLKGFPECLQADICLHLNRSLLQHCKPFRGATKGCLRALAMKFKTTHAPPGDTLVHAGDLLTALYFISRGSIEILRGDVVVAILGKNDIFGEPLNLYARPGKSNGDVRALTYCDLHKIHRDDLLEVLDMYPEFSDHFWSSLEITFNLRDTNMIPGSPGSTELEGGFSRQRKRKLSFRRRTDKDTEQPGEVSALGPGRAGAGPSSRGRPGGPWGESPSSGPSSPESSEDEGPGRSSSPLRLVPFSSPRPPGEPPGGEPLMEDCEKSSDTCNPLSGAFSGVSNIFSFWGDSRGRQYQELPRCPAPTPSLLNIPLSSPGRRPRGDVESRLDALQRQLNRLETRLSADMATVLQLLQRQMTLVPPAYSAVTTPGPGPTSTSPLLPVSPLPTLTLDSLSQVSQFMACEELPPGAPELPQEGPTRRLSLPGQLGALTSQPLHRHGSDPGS
Description: as §1

## Cc1ccc(CNc2nnc(N)s2)cc1 [4l]
[1]
  inhibition at 50 µM: 10.8%
TbPTR1
  inhibition at 50 µM: 18.6 ± 0.8%
In vitro [2]
  viability at 10 µM: 106 ± 13.2%
CYP2C9
  inhibition at 10 µM: 14.2 ± 3.9%
CYP2C19
  inhibition at 10 µM: -6.7 ± 11.4%
CYP3A4
  inhibition at 10 µM: 26.9 ± 4.7%
CYP1A2
  inhibition at 10 µM: 17.3 ± 3.2%
CYP2D6
  inhibition at 10 µM: 98.7 ± 1%
786-O
  inhibition at 10 µM: -5.3 ± 14.7%
In vitro [3]
  viability at 10 µM: 104.6 ± 0.5%
hERG
  inhibition at 10 µM: 77.4 ± 1.5%

## Nc1nnc(NCc2ccc(F)cc2)s1 [4g]
[1]
  inhibition at 50 µM: 33%
TbPTR1
  inhibition at 50 µM: 14.7 ± 1.7%
In vitro [2]
  viability at 10 µM: 97.1 ± 30.2%
CYP2C9
  inhibition at 10 µM: 22.9 ± 1.3%
CYP2C19
  inhibition at 10 µM: -13.9 ± 11.1%
CYP3A4
  inhibition at 10 µM: 11.2 ± 3.1%
CYP1A2
  inhibition at 10 µM: 24.9 ± 2.6%
CYP2D6
  inhibition at 10 µM: 103.1 ± 0.6%
786-O
  inhibition at 10 µM: -8.3 ± 12.6%
In vitro [3]
  viability at 10 µM: 110 ± 8%
hERG
  inhibition at 10 µM: 96.9 ± 6.1%

## COc1cc(CNc2nnc(N)s2)cc(OC)c1OC [4k]
[1]
  inhibition at 50 µM: < 0%
TbPTR1
  inhibition at 50 µM: < 0%
In vitro [2]
  viability at 10 µM: 71.2 ± 3.6%
CYP2C9
  inhibition at 10 µM: 20.2 ± 2.5%
CYP2C19
  inhibition at 10 µM: 0.2 ± 10.3%
CYP3A4
  inhibition at 10 µM: 11.4 ± 3.6%
CYP1A2
  inhibition at 10 µM: 22.3 ± 4.1%
CYP2D6
  inhibition at 10 µM: 23.6 ± 2.4%
786-O
  inhibition at 10 µM: -1.9 ± 14.9%
In vitro [3]
  viability at 10 µM: 116 ± 3.8%
hERG
  inhibition at 10 µM: 21.3 ± 27.9%

## COc1cc(-c2nnc(N)s2)cc(OC)c1OC [1e]
[1]
  inhibition at 50 µM: 1.4%
TbPTR1
  inhibition at 50 µM: 13.5 ± 0.4%
In vitro [2]
  viability at 10 µM: 105 ± 22.3%
CYP2C9
  inhibition at 10 µM: -12.4 ± 3.9%
CYP2C19
  inhibition at 10 µM: -18.5 ± 3.7%
CYP3A4
  inhibition at 10 µM: -11.2 ± 10.3%
CYP1A2
  inhibition at 10 µM: 2.55 ± 3.9%
CYP2D6
  inhibition at 10 µM: -37.2 ± 7.9%
In vitro [3]
  viability at 10 µM: 114 ± 6.2%
hERG
  inhibition at 10 µM: 1 ± 1.9%

## Nc1nnc(-c2cccc([N+](=O)[O-])c2)s1 [1k]
[1]
  inhibition at 50 µM: 1.4%
TbPTR1
  inhibition at 50 µM: 15.6 ± 1.1%
In vitro [2]
  viability at 10 µM: 108 ± 16.8%
CYP2C9
  inhibition at 10 µM: 12.5 ± 6.8%
CYP2C19
  inhibition at 10 µM: -28.3 ± 17.9%
CYP3A4
  inhibition at 10 µM: -14.2 ± 13.2%
CYP1A2
  inhibition at 10 µM: 31.1 ± 2.7%
CYP2D6
  inhibition at 10 µM: -49.3 ± 17.6%
786-O
  inhibition at 10 µM: -5.7 ± 12.9%
In vitro [3]
  viability at 10 µM: 113 ± 1.9%
hERG
  inhibition at 10 µM: 7 ± 5.8%

## CN(C)C(=O)NCc1ccc(-c2nnc(N)s2)cc1 [1p]
[1]
  inhibition at 50 µM: < 0%
TbPTR1
  inhibition at 50 µM: 5.3 ± 0.9%
In vitro [2]
  viability at 10 µM: 118 ± 24.8%
CYP2C9
  inhibition at 10 µM: 36.6 ± 0.6%
CYP2C19
  inhibition at 10 µM: 9.4 ± 6.5%
CYP3A4
  inhibition at 10 µM: 15.1 ± 9.9%
CYP1A2
  inhibition at 10 µM: 20.9 ± 3.3%
CYP2D6
  inhibition at 10 µM: 18.5 ± 2.7%
786-O
  inhibition at 10 µM: 11.6 ± 10.1%
In vitro [3]
  viability at 10 µM: 108.7 ± 0.45%
hERG
  inhibition at 10 µM: 6.4 ± 1.9%

## Nc1nnc(-c2ccco2)s1 [1s]
[1]
  inhibition at 50 µM: < 0%
TbPTR1
  inhibition at 50 µM: 9 ± 0.8%
In vitro [2]
  viability at 10 µM: 138 ± 9.8%
CYP2C9
  inhibition at 10 µM: -9 ± 3.5%
CYP2C19
  inhibition at 10 µM: -10.4 ± 22.5%
CYP3A4
  inhibition at 10 µM: -14.9 ± 9.7%
CYP1A2
  inhibition at 10 µM: 0.3 ± 4.9%
CYP2D6
  inhibition at 10 µM: -47.6 ± 4.7%
786-O
  inhibition at 10 µM: 1.9 ± 4.8%
In vitro [3]
  viability at 10 µM: 132 ± 9.6%
hERG
  inhibition at 10 µM: -3.8 ± 3.2%

## Nc1nnc(NCc2ccccc2)s1 [4b]
[1]
  inhibition at 50 µM: < 0%
TbPTR1
  inhibition at 50 µM: 39.5 ± 0.9%
In vitro [2]
  viability at 10 µM: 124 ± 19%
CYP2C9
  inhibition at 10 µM: -14.7 ± 3.3%
CYP2C19
  inhibition at 10 µM: -32.1 ± 5.7%
CYP3A4
  inhibition at 10 µM: -9.5 ± 6.2%
CYP1A2
  inhibition at 10 µM: -17.2 ± 3.6%
CYP2D6
  inhibition at 10 µM: -32.7 ± 6.7%
786-O
  inhibition at 10 µM: 9 ± 14.8%
In vitro [3]
  viability at 10 µM: 104 ± 9.3%
hERG
  inhibition at 10 µM: 1.8 ± 1.3%

## Cc1nnc(N)s1 [3a]
[1]
  inhibition at 50 µM: < 0%
TbPTR1
  inhibition at 50 µM: 5.4 ± 0.7%
In vitro [2]
  viability at 10 µM: 130 ± 5.8%
CYP2C9
  inhibition at 10 µM: -10.9 ± 5%
CYP2C19
  inhibition at 10 µM: -35.5 ± 2.4%
CYP3A4
  inhibition at 10 µM: -22.3 ± 9%
CYP1A2
  inhibition at 10 µM: -6.6 ± 2.1%
CYP2D6
  inhibition at 10 µM: -46 ± 4.5%
786-O
  inhibition at 10 µM: -4.4 ± 14.3%
In vitro [3]
  viability at 10 µM: 130 ± 19.1%
hERG
  inhibition at 10 µM: 8.2 ± 6.6%
